Source: patent US20230066011A1, “PYRROLOPYRIMIDINE DERIVATIVE, AND PHARMACEUTICAL COMPOSITION FOR PREVENTING OR TREATING PROTEIN KINASE-RELATED DISEASE COMPRISING SAME AS ACTIVE INGREDIENT” (VORONOI CO., LTD., priority 2019, published 2023)

Assays:
MDA-MB-231 cell line = assay: Inhibition of proliferation of MDA-MB-231 cancer cells (Cell Titer-Glo); format: cell-based; conditions: Homo sapiens, 72 hours
Summary of the method: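 Step one, seed 2,000 cells per well in DMEM or RPMI. Step two, add compound at 11 final concentrations (10 to 0.000169 μM, 3-fold series) and culture for 72 hours. Step three, add Cell Titer-Glo, wait 10 min at room temperature, read luminescence and calculate GI50.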

CLK2 = target: T1, CLK2 (Homo sapiens, UniProt P49760); assay: ScanMAX Kinase analysis panel, CLK2; format: binding; conditions: 1 μM in DMSO; <35% considered inhibitory; read-out: percent control (% control), CLK2
T1 construct: purchased DiscoverX Corp. (ScanMAX Kinase analysis panel, service)
Procedure: Specifically, the enzyme (kinase) selectivity of Example compounds 238, 361, 411, 157, 161, 228, and 158 selected from the Example compounds of the present invention was determined by commissioning DiscoverX Corp., and an experiment was performed using a ScanMAX™ Kinase analysis panel. In this case, a concentration of the drug with which the enzymes were treated was 1 μM in DMSO, and the percent control (% control) was defined in the same manner as in the following Expression 1.
(Example Compound−Positive Control)/(Negative Control−Positive Control)×100 [Expression 1]
wherein the positive control represents a compound having a percent control of 0%, and the negative control represents DMSO having a percent control of 100%. For the enzyme selectivity of the present invention, it was considered that the compound has an inhibitory activity on each of the enzymes when the percent control for the corresponding enzyme was <35% (i. e., less than 35%).

TNF-α = assay: Inhibition of LPS-induced TNF-α secretion of THP-1 monocytes (ELISA); format: cell-based, human; conditions: Homo sapiens, THP-1; compound 0.5 μM, LPS 500 ng/mL, 24 hours; read-out: THP-1/TNF-α (% inhib)
Summary of the method: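 THP-1 monocytes grown 16 h at 37 °C, pretreated 1 h with compound at final 0.5 μM, then stimulated with LPS at final 500 ng/mL for 24 h. IL-6 and TNF-α in culture supernatant measured by ELISA (OD 450 nm).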

human GST-DYRK1A = target: T2, human GST-DYRK1A (Homo sapiens, UniProt Q13627); assay: GST-DYRK1A enzyme inhibition, ADP-Glo kinase assay; format: biochemical; conditions: ATP 10 μM, GST-DYRK1A full length, read-out: DYRK1 IC50
T2 construct: purified human GST-DYRK1A (full length, Thermo Scientifics) enzyme; purchased Thermo Scientifics
Summary of the method: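 Full-length human GST-DYRK1A (10 ng) with 10 μM ATP and specific substrate in 40 mM Tris-HCl pH 7.4, 20 mM MgCl2, 0.5 mg/mL BSA, 50 μM DTT, 1 h at 25 °C. ADP formation read by ADP-Glo luminescence relative to solvent control; IC50 from three data sets.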

T1 sequence (P49760 whole entry): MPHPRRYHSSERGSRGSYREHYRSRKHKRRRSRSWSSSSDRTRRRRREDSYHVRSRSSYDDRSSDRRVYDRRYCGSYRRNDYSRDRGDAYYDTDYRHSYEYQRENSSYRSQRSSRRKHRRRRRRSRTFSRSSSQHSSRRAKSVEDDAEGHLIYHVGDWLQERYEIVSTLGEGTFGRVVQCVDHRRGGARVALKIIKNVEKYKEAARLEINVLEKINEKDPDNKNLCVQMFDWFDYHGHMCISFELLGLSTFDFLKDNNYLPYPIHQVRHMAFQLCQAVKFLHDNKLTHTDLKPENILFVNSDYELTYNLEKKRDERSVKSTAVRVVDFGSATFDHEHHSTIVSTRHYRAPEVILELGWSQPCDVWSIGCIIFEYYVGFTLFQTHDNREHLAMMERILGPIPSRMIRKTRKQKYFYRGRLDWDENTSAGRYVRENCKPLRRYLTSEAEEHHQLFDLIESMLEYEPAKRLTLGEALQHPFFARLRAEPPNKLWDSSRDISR

| Structure (SMILES) | GI50 (MDA-MB-231 cell line) | remaining binding at 1 µM (CLK2) | IC50 (human GST-DYRK1A) | inhibition at 0.5 µM (TNF-α) |
| --- | --- | --- | --- | --- |
| CNc1nc(Nc2ccc(S(=O)(=O)N3CCC(N4CCOCC4)CC3)cc2OC)nc2[nH]cc(C(F)(F)F)c12 [Example 157, N^2-(2-methoxy-4-((4-morpholinopiperidin-1-yl)sulfonyl)phenyl)-N^4-methyl-5-(trifluoromethyl)-7H-pyrrolo[2,3-d]pyrimidine-2,4-diamine 2,2,2-trifluoroacetate] | 301 to 1000 nM | 2.9% | < 100 nM | 6.7% |
| CCNc1nc(Nc2ccc(S(=O)(=O)N3CCC(N4CCOCC4)CC3)cc2OC)nc2[nH]cc(C(F)(F)F)c12 [Example 158, N^4-ethyl-N^2-(2-methoxy-4-((4-morpholinopiperidin-1-yl)sulfonyl)phenyl)-5-(trifluoromethyl)-7H-pyrrolo[2,3-d]pyrimidine-2,4-diamine 2,2,2-trifluoroacetate] | 101 to 300 nM | 22% |  |  |
| CCCNc1nc(Nc2ccc(S(=O)(=O)N3CCC(N4CCOCC4)CC3)cc2OC)nc2[nH]cc(C(F)(F)F)c12 [Example 161, N^2-(2-methoxy-4-((4-morpholinopiperidin-1-yl)sulfonyl)phenyl)-N^4-propyl-5-(trifluoromethyl)-7H-pyrrolo[2,3-d]pyrimidine-2,4-diamine] | 301 to 1000 nM | 3.9% |  |  |
| CNc1nc(Nc2ccc(S(=O)(=O)N3CCC(N4CCOCC4)CC3)c3c2OCCO3)nc2[nH]cc(C(F)(F)F)c12 [Example 219, N^4-methyl-N^2-(8-((4-morpholinopiperidin-1-yl)sulfonyl)-2,3-dihydrobenzo[b][1,4]dioxin-5-yl)-5-(trifluoromethyl)-7H-pyrrolo[2,3-d]pyrimidine-2,4-diamine] | 301 to 1000 nM |  | < 100 nM | 6.6% |
| O=C(c1ccc(Nc2nc(C3CC3)c3c(C(F)(F)F)c[nH]c3n2)c2c1OCCO2)N1CCC(N2CCOCC2)CC1 [Example 228, (8-((4-cyclopropyl-5-(trifluoromethyl)-7H-pyrrolo[2,3-d]pyrimidin-2-yl)amino)-2,3-dihydrobenzo[b][1,4]dioxin-5-yl)(4-morpholinopiperidin-1-yl)methanone] |  | 5.5% |  |  |
| CNc1nc(Nc2ccc(P3(=O)CCN(C4CC4)CC3)cc2OC)nc2[nH]cc(C(F)(F)F)c12 [Example 411, 1-cyclopropyl-4-(3-methoxy-4-((4-(methylamino)-5-(trifluoromethyl)-7H-pyrrolo[2,3-d]pyrimidin-2-yl)amino)phenyl)-1,4-azaphosphinane-4-oxide] |  | 0% | 101 to 300 nM |  |
| O=C(c1ccc(Nc2nc(NC3CCCC3)c3c(C(F)(F)F)c[nH]c3n2)c2c1OCCO2)N1CCN(C2COC2)CC1 [Example 414, (8-((4-(cyclopentyl-amino)-5-(trifluoromethyl)-7H-pyrrolo[2,3-d]pyrimidin-2-yl)amino)-2,3-dihydrobenzo[b] [1,4]dioxin-5-yl) (4-(oxetan-3-yl)piperazin-1-yl)methanone] | 101 to 300 nM |  | < 100 nM | 40.3% |
| CCNc1nc(Nc2ccc(S(=O)(=O)N3CCC(N4CCOCC4)CC3)c3c2OCCO3)nc2[nH]cc(C(F)(F)F)c12 [Example 430, N^4-ethyl-N^2-(8-((4-morpholino-piperidin-1-yl)sulfonyl)-2,3-dihydro-benzo[b][1,4]dioxin-5-yl)-5-(trifluoromethyl)-7H-pyrrolo[2,3-d]pyrimidine-2,4-diamine] | 301 to 1000 nM |  | 301 to 1000 nM | 4.5% |
| COc1cc(S(=O)(=O)N2CCC(N3C[C@H]4C[C@@H]3CO4)CC2)ccc1Nc1nc(C2CC2)c2c(C(F)(F)F)c[nH]c2n1 [Example 473, N-(4-((4-((1R,4R)-2-oxa-5-azabicyclo[2.2.1]heptan-5-yl)piperidin-1-yl)sulfonyl)-2-methoxyphenyl)-4-cyclopropyl-5-(trifluoromethyl)-7H-pyrrolo[2,3-d]pyrimidin-2-amine] | 101 to 300 nM |  |  | 11.3% |

The next lines start with results.

| GI50 (MDA-MB-231 cell line) | remaining binding at 1 µM (CLK2) | IC50 (human GST-DYRK1A) | Structure (SMILES) | inhibition at 0.5 µM (TNF-α) |
| --- | --- | --- | --- | --- |
|  | 0.65% | < 100 nM | CNc1nc(Nc2ccc(C(=O)N3CCC(N4CCOCC4)CC3)c3c2OCCO3)nc2[nH]cc(C(F)(F)F)c12 [Example 238, (8-((4-(methylamino)-5-(trifluoromethyl)-7H-pyrrolo[2,3-d]pyrimidin-2-yl)amino)-2,3-dihydrobenzo[b][1,4]dioxin-5-yl)(4-morpholinopiperidin-1-yl)methanone] |  |
| 301 to 1000 nM |  | < 100 nM | COCCNc1nc(Nc2ccc(C(=O)N3CCC(N4CCOCC4)CC3)c3c2OCC3)nc2[nH]cc(C#N)c12 [Example 359, 4-((2-methoxy-ethyl)ami-no)-2-((4-(4-morpholino-piperidine-1-carbonyl)-2,3-dihydro-benzofuran-7-yl)amino)-7H-pyrrolo[2,3-d]pyrimidine-5-carbonitrile] | 33.2% |
|  | 3.9% | 301 to 1000 nM | C=CCNc1nc(Nc2ccc(S(=O)(=O)N3CCC(N4CCOCC4)CC3)cc2OC)nc2[nH]cc(C#N)c12 [Example 361, 4-(allylamino)-2-((2-methoxy-4-((4-morpholino-piperidin-1-yl)sulfonyl)phenyl)amino)-7H-pyrrolo[2,3-d]pyrimidine-5-carbonitrile] | 9.3% |
|  |  | < 100 nM | CCNc1nc(Nc2ccc(C(=O)N3CCC(N4C[C@@H]5C[C@H]4CO5)CC3)c3c2OCC3)nc2[nH]cc(C(F)(F)F)c12 [Example 468] | 16.5% |
|  |  | < 100 nM | CCNc1nc(Nc2ccc(C(=O)N3CC[C@H](N4CCOCC4)C3)c3c2OCC3)nc2[nH]cc(C(F)(F)F)c12 [Example 475, (S)-(7-((4-(ethylamino)-5-(trifluoromethyl)-7H-pyrrolo[2,3-d]pyrimidin-2-yl)amino)-2,3-dihydrobenzo-furan-4-yl)(3-morpholino-pyrrolidin-1-yl)methanone] | 4.7% |
